These are literature values, as cited in US7485658B2, “N-substituted pyrazolyl-amidyl-benzimidazolyl c-Kit inhibitors” (OSI Pharmaceuticals, Inc., priority 2003, dated 2009).

Data set [1] relates to MO7e human leukemia cells.
The subject of data set [2] is MO7e human leukemia cells. This is another data set of the same source.

Where a name gives a salt, the structure may show the parent alone.

For the compound `Cc1ccc(NC(=O)c2ccc(CN3CCN(C)CC3)cc2)cc1Nc1nccc(-c2cccnc2)n1` [Gleevec, imatinib mesylate], the “GM-CSF stimulated growth of MO7e cells” value in data set [1] is given as “not affected”. In addition, the “Kit ligand-stimulated growth of MO7e cells” value in data set [2] (Kit ligand stimulated) is given as “inhibited”. Also, the “apoptosis in MO7e cells” value in data set [2] (Kit ligand stimulated conditions) was “induces apoptosis”.
